Results from patent US20200270225A1, “Chiral Diacylhydrazine Ligands for Modulating the Expression of Exogenous Genes via an Ecdysone Receptor Complex” (Intrexon Corporation, priority 2007, published 2020).
pEC50: −log10 of the molar value. Where two headings read alike, the source gives them in different places.

Columns and labels:
[1] = Intrinsic dissolution of compressed pellets in 1% Polysorbate 80; format: physicochemical; conditions: 1% Polysorbate 80 in di-water, 37° C., up to 120 minutes
Method: Next, the intrinsic dissolution profiles of R enantiomer and racemate of 2-ethyl-3-methoxy-benzoic acid N′-(1-tert-butyl-butyl)-N′-(3,5-dimethyl-benzoyl)-hydrazide were determined using compressed pellets (7 mm diameter, 100 mg) in 1% Polysorbate 80 in Di-water at 37° C., according to the following test conditions:
Medium: 1% Polysorbate 80 in di-water (vacuum filtered thru a 0.8 μM filter)
Sampling volume: 1 mL (filtered thru 30 micron)
Analysis: HPLC (prepare standard solutions from each lot)
Sample size: n=2 pellets/test substance
After 120 minutes, it was observed that the pellets for both substances remained intact in the medium.

[2] = Dynamic vapor sorption analysis; format: physicochemical; conditions: for weight loss under desiccant condition: 20% RH; for weight gain: 70% RH, after dehydration
Excerpt: At 70% RH, the weight gain is 6.3% for the R enantiomer and 6.2% for the racemate (data not shown), indicating moderate hygroscopicity for both materials.

[3] = target: wild-type Choristoneura fumiferana EcR (D, E and F domains) (Choristoneura fumiferana, UniProt O77240); format: cell-based; conditions: WT-CtEcR, 3T3 Cells; for RMFI (relative maximum fold induction): relative to GS-E ligand
How it was run: (§1)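 NIH3T3 cells were transiently co-transfected with GAL4-DBD fused to CfEcR DEF domains (wild-type or V390I/Y410E/E274V), VP16-AD fused to chimeric human/Locusta RXR, and a GAL4-response luciferase reporter. Ligand was given at 8 doses, 0.01–33 µM, 0.33% DMSO, luciferase read at 48 h. EC50 came from fold induction over DMSO via three-parameter logistic fit; Relative Max FI was taken versus GS™-E ligand.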

[4] = target: T1, [V390I/Y410E/E274V]-CfEcR (Choristoneura fumiferana, UniProt O77240); format: cell-based; conditions: 3T3 Cells; for RMFI (relative maximum fold induction): relative to GS-E ligand
T1 construct: assay construct b835
How it was run: as §1

[5] = Solubility in pharmaceutical excipients, Assay 2 (heating, cooling, seeding); format: physicochemical; conditions: supersaturated solutions seeded with crystalline substance, room temperature
Method: For each excipient, the lowest concentration at which R enantiomer or racemate of 2-Ethyl-3-methoxy-benzoic acid N′-(1-tert-butyl-butyl)-N′-(3,5-dimethyl-benzoyl)-hydrazide is insoluble in the FIG. 9 assay was identified. Suspensions of both materials at this same concentration were prepared in vials. Each sample was stirred at room temperature for ≤2.5 hr (treatment 1). As a separate experiment, test article/excipient combinations were heated in an aluminum block at 90° C. for 5 minutes, or longer as needed; indicated in FIG. 10, and allow to cool to room temperature, and seeded with a tiny amount of the same micronized substance. (treatment 2). The physical appearance was recorded at 72 hr or the indicated time (FIG. 10). In all cases, no change in color was observed. This solubility assay operates from a fully dissolved condition in which initial particle size and morphic form are irrelevant. […] Photos were taken of preparations in clear glass vials (R enantiomer under the conditions of assay 1 without heating to 90° C., and racemate after 90° C. treatment, cooling and seeding, not shown).

Row | SMILES | release from compressed pellets (intrinsic dissolution) [1] | weight loss under desiccant condition [2] | weight gain [2] [%] | pEC50 ([3]; R) | RMFI (relative maximum fold induction) ([3]; R) | pEC50 ([4]; R) | RMFI (relative maximum fold induction) ([4]; R) | physical appearance of excipient solutions after seeding [5] | pEC50 ([3]; rac) | RMFI (relative maximum fold induction) ([3]; rac) | pEC50 ([4]; rac) | RMFI (relative maximum fold induction) ([4]; rac)
1 | CCC[C@@H](N(NC(=O)c1cccc(OC)c1CC)C(=O)c1cc(C)cc(C)c1)C(C)(C)C [Example 1, (R)-3,5-Dimethyl-benzoic Acid N-(1-tert-butyl-butyl)-N′-(2-ethyl-3-methoxy-benzoyl)-hydrazide] | under the detection limit | 0.9 % of total weight | 6.3 | 8.65 | 0.97 | 9.89 | 0.82 | remains fully dissolved | – | – | – | –
2 | CCCC(N(NC(=O)c1cccc(OC)c1CC)C(=O)c1cc(C)cc(C)c1)C(C)(C)C (racemic) [rac-1, rac-2-ethyl-3-methoxy-benzoic acid N′-(1-tert-butyl-butyl)-N′-(3,5-dimethyl-benzoyl)-hydrazide] | under the detection limit | did not show any significant weight loss | 6.2 | – | – | – | – | precipitation/crystallization upon seeding | 8.79 | 1.05 | 9.85 | 1.05
